{"source": "patent US11098045B2", "about": "“Haloallylamine indole and azaindole derivative inhibitors of lysyl oxidases and uses thereof” (PHARMAXIS LTD., priority 2016, dated 2021)", "key": {"[1]": {"tested_on": "Fibroblasts from confirmed cases of IPF", "assay": "In vitro fibroblastic foci model of IPF, collagen cross-link formation", "assay_type": "cell-based", "conditions": "six weeks culture with TGF-β1; FIGS. 7a and 7b", "text": "Reduction of Collagen Cross-Link Formation in an In Vitro Fibroblastic Foci Model of IPF\nThe lung tissue of patients with idiopathic pulmonary fibrosis (IPF) is characterised by dense collections of myofibroblasts and extracellular matrix (ECM) termed ‘fibroblastic foci’. Using a novel in vitro model of fibroblastic foci (Jones et al., AJRCCM 191; 2015:A4912) the formation of lysyl oxidase (LOX) mediated collagen cross-links and the effects of the non-selective LOX inhibitor β-aminopropionitrile (BAPN) as well lysyl oxidase like-2 (LOXL2)-selective inhibitors were investigated.\nCultures of primary fibroblasts were grown out from clinical diagnostic biopsies of fibrotic lung and stored in liquid nitrogen. […]\nTo quantify collagen cross-links (Robins Biochem Soc Trans 2007; 35(5): 849-852; Saito et al Anal. Biochem. 1997; 253: 26-32; Sims, Avery & Bailey Methods in Molecular Biology 2000; vol 139: 11-26), cultures were treated with potassium borohydride to stabilise the reducible immature cross-links, and hydrolysed in 6N HCl at 100° C. for 16 hr. Total collagen content was assessed by hydroxyproline assay. Immature cross-links were assessed by LC/MS/MS and mature pyridinoline cross-links by ELISA. Cross-link data is expressed as moles of cross-link per mole collagen. […]"}, "[2]": {"tested_on": "Bleomycin induced lung fibrosis", "assay": "Bleomycin induced lung fibrosis model", "assay_type": "in vivo", "conditions": "mouse, intranasal bleomycin; 15 mg/kg", "description": "Inhibition of Bleomycin Induced Lung Fibrosis\nBleomycin induced lung fibrosis in rodents is a widely accepted experimental model to determine the anti-fibrotic activity of therapeutic agents.\nFibrosis is induced by intranasal administered of bleomycin sulphate at a dose of 0.05 U/mouse in a total volume of 50 uL PBS (see Corbel, M., et al Inhibition of bleomycin-induced pulmonary fibrosis in mice by the matrix metalloproteinase inhibitor batimastat J Pathol. 2001 April; 193(4):538-45.) Compound 12 is given 0.1-100 mg/Kg throughout the period of the experimental procedure or 7 days after bleomycin administration and then throughout the entire study.\nFormalin fixed lungs sections stained with haematoxylin and eosin are assessed for fibrosis as per the scale outlined by Ashcroft et al (Simple method of estimating severity of pulmonary fibrosis on a numerical scale J Clin Pathol 1988; 41:467-470)."}, "[3]": {"tested_on": "Streptozotocin induced diabetic nephropathy", "assay": "Streptozotocin induced diabetic nephropathy model", "assay_type": "in vivo, mouse", "conditions": "diabetic eNOS knockout mice, 24 weeks treatment, 0.1-100 mg/Kg", "text": "Inhibition of Streptozotocin Induced Diabetic Nephropathy\nStreptozotocin (STZ)-induced diabetic nephropathy is commonly used for creating rodent models of type 1 diabetes which develop renal injury, due to pancreatic cell damage with similarities to human diabetic nephropathy.\nThis model can be established for investigating anti-fibrotic effects of compounds in the development of kidney fibrosis.\nDiabetes is induced in eNOS knockout mice on C57BL/6 background by intraperitoneal STZ injection (55 mg/kg in 0.1 M citrate buffer) in mice of 6-9 weeks of age (see Huang C et al, Blockade of KCa3.1 ameliorates renal fibrosis through a TGF-b1/Smad pathway in diabetic mice. Diabetes, 2013 62(8):2923-2934).\nBlood sugar level (BSL) is determined by tail vein blood. Mice with BSL>16 mmol/L two weeks post STZ injection are considered diabetic. Treatment with Compound 12 is carried out for 24 weeks from diagnosis of diabetes at a dose of 0.1-100 mg/Kg."}, "[4]": {"tested_on": "Myocardial infarction induced fibrosis", "assay": "Myocardial infarction induced fibrosis model", "assay_type": "in vivo, mouse", "conditions": "mice, 0.1-100 mg/Kg once a day by oral gavage; FIG. 5", "text": "Inhibition of Myocardial Infarction Induced Fibrosis\nCarotic ligation is a widely accepted experimental model to induce cardiac fibrosis and to determine the anti-fibrotic activity of therapeutic agents.\nIn mice, the chest is opened via a left thoracotomy. The left coronary artery is identified visually using a stereo microscope, and a 7-0 suture is placed around the artery 1-2 mm below the left auricle. Permanent occlusion of the left coronary artery resulted from its ligation with the suture. Myocardial ischemia was confirmed by pallor in heart color and ST-segment elevation. (see Parajuli et al. Phosphatase PTEN is critically involved in post-myocardial infarction remodeling through the Akt/interleukin-10 signaling pathway Basic Res Cardiol (2012) 107:248).\nMice were subjected to sham or carotic ligation surgery. At 24 hrs post-surgery, echocardiography was performed on the mice. Mice were treated with compound 25 0.1-100 mg/Kg once a day for 21 (7 days after carotic ligation) or 28 days or saline as vehicle controls by oral gavage. At the end of the experiment, echocardiography was repeated to assess left ventricular function and remodeling. Then mice were euthanized for heart collection. Each heart was photographed and fixed with 10% formalin. Hearts were sectioned for Masson's trichrome stain to measure fibrosis (See FIG. 5)."}, "[5]": {"tested_on": "CCl4 induced liver fibrosis", "assay": "CCl4 induced liver fibrosis model", "assay_type": "in vivo, rat", "conditions": "rats, oral CCl4 for 6 weeks; 0.1-100 mg/Kg; compared with vehicle-treated group", "description": "Inhibition of CCl4 Induced Liver Fibrosis\nAn analysis of the use of LOXL2 inhibitors to treat inflammatory/fibrotic diseases is performed through the use of a CCl4 induced liver fibrosis model. Liver injury is frequently followed by complete parenchymal regeneration due to regenerative potency of hepatocytes. Continuous liver injury due to the administration of CCl4 leads to extracellular matrix accumulation, accompanied by recurrent hepatocyte necrosis, inflammation, and regenerative processes, causing liver fibrosis and consequently liver cirrhosis (see Natsume, M., et al., Attenuated liver fibrosis and depressed serum albumin levels in carbon tetrachloride-treated IL-6-deficient mice. J. Leukoc. Biol., 1999, 66, 601-608 also See Yao, Q. Y., et al. Inhibition by curcumin of multiple sites of the transforming growth factor-beta1 signalling pathway ameliorates the progression of liver fibrosis induced by carbon tetrachloride in rats. BMC Complement Altern Med. 2012 Sep. 16; 12(1):156.)\nRats are administered orally with CCl4 at a concentration of 0.25 μL/g in olive oil, 3 times per week for 6 weeks. Compound 25 is given 0.1-100 mg/Kg throughout the period of the experimental procedure or only 3 weeks after CCl4 administration and then throughout the entire study. […]"}, "[6]": {"tested_on": "Streptozotocin and high fat diet induced liver fibrosis", "assay": "Streptozotocin and high fat diet induced liver fibrosis (STAM model)", "assay_type": "in vivo, mouse", "conditions": "STAM mice, daily oral gavage 10-30 mg/kg; FIG. 6", "description": "Streptozotocin and High Fat Diet Induced Liver Fibrosis\nHigh fat/carbohydrate diet induced liver fibrosis is the most common reason for liver dysfunction and ultimately liver failure. NASH is induced in male mice by a single subcutaneous injection of 200 μg streptozotocin solution 2 days after birth and feeding with high fat diet after 4 weeks of age (STAM™ model).\nLOXL2 inhibitor compound 112 was administered by daily oral gavage at doses between 10-30 mg/kg 8 weeks after streptozotocin application. Mice were sacrificed after NASH had been established and whole blood samples were taken via cardiac puncture. Liver samples were collected and washed with cold saline. Liver weight was measured. The left lateral, right and caudate lobes of livers were snap frozen in liquid nitrogen and stored at −80° C. For HE staining, sections were cut from paraffin blocks of liver tissue prefixed in Bouin's solution and stained with Lillie-Mayer's Hematoxylin and eosin solution. NAFLD Activity score (NAS) was calculated according to the criteria of Kleiner (Kleiner D E. et al., Design and validation of a histological scoring system for nonalcoholic fatty liver disease. Hepatology, 2005; 41:1313). To visualize collagen deposition, Bouin's fixed liver sections were stained using picro-Sirius red solution and the area of fibrosis was quantified (See FIG. 6)."}}, "note": "Structures can show the parent of a compound that is named as a salt."}
{"smiles": "N#CCCN", "note": "[BAPN, β-aminopropionitrile, reference compound]", "values": [{"measurement": "collagen cross-link formation (immature and mature cross-links)", "setting": "[1]", "value": "reduced cross-link formation in a concentration dependent manner"}]}
{"smiles": "CCOC(=O)c1ccc2c(c1)c(-c1cccc(S(=O)(=O)N(C)C)c1)c(C)n2C/C(F)=C/CN", "note": "[Compound 12, (Z)-ethyl 1-(4-amino-2-fluorobut-2-en-1-yl)-3-(3-(N,N-dimethylsulfamoyl)phenyl)-2-methyl-1H-indole-5-carboxylate]", "values": [{"measurement": "Ashcroft score in the lungs", "setting": "[2]", "value": "significantly reduced this score"}, {"measurement": "kidney function by albumin/creatinine ratio quantification", "setting": "[3]", "value": "significant improvement in kidney function"}, {"measurement": "reduction of fibrosis by Masson's Trichrome staining", "setting": "[3]; compared with vehicle-treated group", "value": "up to 50%"}]}
{"smiles": "Cc1c(-c2cccc(S(=O)(=O)N(C)C)c2)c2ncccc2n1C/C(F)=C/CN", "note": "[Compound 25, (Z)-3-(1-(4-amino-2-fluorobut-2-en-1-yl)-2-methyl-1H-pyrrolo[3,2-b]pyridin-3-yl)-N,N-dimethylbenzenesulfonamide Dihydrochloride]", "values": [{"measurement": "fibrosis after ligation (Masson's trichrome stain)", "setting": "[4]", "value": "reduce fibrosis"}, {"measurement": "reduction of fibrosis in the liver by sirius red staining with quantification", "setting": "[5]", "value": "up to 50%"}]}
{"smiles": "Cc1ccc2c(n1)c(-c1cccc(S(C)(=O)=O)c1)c(C)n2C/C(F)=C/CN", "note": "[Compound 112, (Z)-4-(2,5-dimethyl-3-(3-(methylsulfonyl)phenyl)-1H-pyrrolo[3,2-b]pyridin-1-yl)-3-fluorobut-2-en-1-amine Dihydrochloride]", "values": [{"measurement": "collagen cross-link formation (immature and mature cross-links)", "setting": "[1]", "value": "reduced cross-link formation in a concentration dependent manner"}, {"measurement": "liver fibrosis (picro-Sirius red area of fibrosis)", "setting": "[6]", "value": "reduce liver fibrosis"}]}
